Patent US12268666B2, “Spray-dried dispersions, formulations, and polymorphs of (S)-5-amino-3-(4-((5-fluoro-2-methoxybenzamido)methyl)phenyl)-1-(1,1,1-trifluoropropan-2-yl)-1H-pyrazole-4-carboxamide” (Loxo Oncology, Inc., priority 2018, dated 2025)
Like-named read-outs stand apart in the source and are kept apart here.

Assays:
[1] = Dog pharmacokinetics, crystalline compound in suspension (Example 15 Part A); assay type: in vivo, beagle dogs; settings: for bioavailability / AUC(0-t) / Cmax: both sexes, beagle, dog, plasma, 30 mg/kg; for bioavailability: oral, AUC0-t oral vs AUC0-inf of 2-mg/kg IV dose, read-out: F (bioavailability); for AUC(0-t) / Cmax: po, suspension in 0.5% HPMC
Protocol: Crystalline compound of Formula I is prepared as a suspension in 0.5% hydroxypropyl methylcellulose (IPMC) at 6 mg/mL for administration of 30 mg/kg; no correction factor is used for dose formulation. Three male and five female beagle dogs are administered a single PO gavage dose of 30 mg/kg compound of Formula I formulated as a suspension in 0.5% HPMC. All animals are administered the suspension of the crystalline compound of Formula I in fed and fasted states, following a 7-day washout period between dosing periods/feeding conditions. For both feeding conditions, access to food is removed at least 12 hours prior to dose administration. In Crossover #1, 6 dogs are fed a mix of canned and dry food approximately 45 minutes prior to dose administration (Group 1), and 2 dogs are administered the compound of Formula I in a fasted state and fed 4 hours after dosing (Group 2). In Crossover #2, the 2 dogs that are administered the compound of Formula I in the fasted state in Crossover #1 are fed a mix of canned and dry food approximately 45 minutes prior to dose administration (Group 3), and 5 of the dogs that are administered the compound of Formula I in the fed state in Crossover #1 are administered the compound of Formula I in a fasted state and fed 4 hours after dosing (Group 4) (Table 26). The same 3 males and 3 females are assigned to Groups 1 and 4 (with the exception of one female, which is assigned to Group 1 but is not included in Group 4), and the same 2 females are assigned to Groups 2 and 3.
Blood samples are collected via the jugular vein following PO doses at 0 (pre-dose), 0.5, 1, 2, 4, 8 24 and 48 hours into EDTAblood collection tubes. Samples are centrifuged at 3500 rpm for 10 minutes at 4-8° C. and the plasma fraction is stored frozen at −70° C. prior to bioanalytical analysis. Concentrations of the compound of Formula I in dog plasma are determined by LC-MS/MS following protein precipitation with acetonitrile. Non-compartmental pharmacokinetic parameters of the compound of Formula I are calculated by conventional methods using individual plasma concentration profiles over time and Microsoft Excel.

[2] = In vivo dog bioavailability and pharmacokinetic study, reference vs SDD; settings: beagle, plasma, po, 30 mg/kg, dogs, suspension in 0.5% HPMC in water, mean ± SD
Protocol: Dogs are fasted overnight prior to dosing (fasted) or fed canned food 45 min prior to dosing (fed). Samples for pharmacokinetic (PK) analysis are collected at 30 min, 1, 2, 4, 8, 24, and 48 hours post-dose. Blood samples are processed to plasma and stored frozen at −70° C. until analysis of the compound of Formula I concentrations. The concentration of the compound of Formula I in the plasma is determined by reverse phase HPLC with mass spectrometry detection. The compound of Formula I area under the curve is calculated by the trapezoidal method over the time course of the study. ANOVA with Dunett correction for multiple comparisons is used to determine statistical significant of differences from the reference formulation. The values of AUC and Cmax are reported as averages±standard deviation for each group of dogs in Table 24.

[3] = beagle dogs, single PO 30 mg/kg
[4] = beagle dogs, fasted, single PO 30 mg/kg
[5] = beagle dogs, fed, single PO 30 mg/kg

Row | SMILES | AUC0-t fold change (fed/fasted ratio) [1, 3] | Cmax fold change (fed/fasted ratio) [1, 3] | bioavailability ([1]; fasted) | bioavailability ([1]; fed) | AUC(0-t) [1, 4] | Cmax [1, 4] | AUC(0-t) [1, 5] | Cmax [1, 5] | AUC ([2]; fasted) | Cmax ([2]; fasted) | AUC ([2]; fed) | Cmax ([2]; fed)
1 | COc1ccc(F)cc1C(=O)NCc1ccc(-c2nn([C@@H](C)C(F)(F)F)c(N)c2C(N)=O)cc1 [Crystalline compound of Formula I, (S)-5-amino-3-(4-((5-fluoro-2-methoxybenzamido)methyl)phenyl)-1-(1,1,1-trifluoropropan-2-yl)-1H-pyrazole-4-carboxamide] | 7.5 ± 3.3 | 4.8 ± 2.1 | 5.09% | 29.7% | 8180 ± 3680 ng·h/mL | 597 ± 197 ng/mL | 47800 ± 21300 ng·h/mL | 2370 ± 679 ng/mL | – | – | – | –
2 | COc1ccc(F)cc1C(=O)NCc1ccc(-c2nn([C@@H](C)C(F)(F)F)c(N)c2C(N)=O)cc1 [Reference, (S)-5-amino-3-(4-((5-fluoro-2-methoxybenzamido)methyl)phenyl)-1-(1,1,1-trifluoropropan-2-yl)-1H-pyrazole-4-carboxamide] | – | – | – | – | – | – | – | – | 11300 ng·h/mL | 597 ng/mL | 47800 ng·h/mL | 2370 ng/mL
